Reference: patent EP0176369A2, “7-(Alpha-(4-oxo-2-azetidinyl(or -azetidinylalkyl)-oxyimino)-alpha-(2-amino-4-thiazolyl)acetamido]-3- substituted-Delta 3-cephem-4-carboxylic acid compounds and salts thereof, their production, and medicaments containing them” (YAMANOUCHI PHARMACEUTICAL CO. LTD., priority 1984, dated 1986)
≈ marks a conversion by molar mass, not a printed value.

Tests used:
Test in all cases: Antibacterial activity (minimum effective inhibitory concentration)
Format in all cases: cell-based
[1] = system: Kleb. pneumoniae ATCC 10031; details: Klebsiella pneumoniae, ATCC10031, read-out: minimum effective inhibitory concentrations
Description: (§1) Antibacterial activities (minimum effective inhibitory concentrations) of compounds of formula I (taken from the following Examples) are shown in the following Table.

[2] = system: Ps. aeruginosa NCTC 10490; details: Pseudomonas aeruginosa, NCTC10490, read-out: minimum effective inhibitory concentrations
Description: as §1

[3] = system: Sal. enteritidis 1891; details: Salmonella enterica, read-out: minimum effective inhibitory concentrations
Description: as §1

[4] = system: Serr. marcescens II D 620; details: Serratia marcescens, IID620, read-out: minimum effective inhibitory concentrations
Description: as §1

[5] = system: Staph. epidermidis IIb 866; details: Staphylococcus epidermidis, IIB866, read-out: minimum effective inhibitory concentrations
Description: as §1

SMILES | MIC [1] [µg/mL] | MIC [2] [µg/mL] | MIC [3] [µg/mL] | MIC [4] [µg/mL] | MIC [5] [µg/mL]
Cn1nnnc1SCC1=C(C(=O)O)N2C(=O)C(NC(=O)C(=NOC3CC(=O)N3)c3csc(N)n3)C2SC1 (stereo not drawn) [Example 1, sodium (Z)-7-[α-(4-oxo-2-azptidinyloxyimino)-4-(2-amino-4-thiazolyl)acet-amido]-3-(1-methyl-5-tetrazolyl)thiomethyl-Δ^3-cephem-4-carboxylate] | 0.025 | 0.78 | 0.025 | 0.05 | 0.2
Nc1nc(C(=NOC2CC(=O)N2)C(=O)NC2C(=O)N3C(C(=O)O)=C(CSc4nnnn4CCO)CSC23)cs1 (centres unmarked) [Example 2, sodium (Z)-7[-(2-amino-4-thiazolyl)-∝-(4-oxo-2-azetidingloxyiino)acetamido]-3-[1-(2-gtdrixy-ethyl)-5-tetrazolyl]thiomethyl-^3-cephem-4-carboxcylate] | 0.05 | 0.1 | 0.1 | 0.1 | 0.78
Nc1ccc[n+](CC2=C(C(=O)[O-])N3C(=O)C(NC(=O)C(=NOC4CC(=O)N4)c4csc(N)n4)C3SC2)c1 (stereo not drawn) [Example 4, (Z)-7-[α(-2-amino-4-thiazolyl) -α-(4-oxo-2-azetidinyloxyimino)acetamido]-3-(3-amino-pyridiniomethyl)-^3-cephem-4-carboxylate] | 0.1 (≈ 0.184 µM) | 0.78 (≈ 1.43 µM) | 0.1 (≈ 0.184 µM) | 0.1 (≈ 0.184 µM) | 0.2 (≈ 0.367 µM)
C[N+]1(CC2=C(C(=O)[O-])N3C(=O)C(NC(=O)C(=NOC4CC(=O)N4)c4csc(N)n4)C3SC2)CCCC1 (centres unmarked) [Example 7, (Z)-7-[ -(2-amino-4-thiazolyl)- -(4-oxo-2-azetidinyloxyimino)-acetamido]-3-(1-methyl-1-pyrrolidiniomethyl)-3-cephem-4-carboxylate] | 0.05 (≈ 0.0934 µM) | 0.39 (≈ 0.728 µM) | 0.05 (≈ 0.0934 µM) | 0.1 (≈ 0.187 µM) | 0.2 (≈ 0.373 µM)
